# Data as given in patent US6867179B1, “Methods of inducing hair growth and coloration” (Trustees of Boston University, priority 1994, dated 2005).
# No end group written: not given here.
# B1: human p75 nerve growth factor receptor (receptor, UniProt P08138 29-427, looked up)
# chain: KEACPTGLYTHSGECCKACNLGEGVAQPCGANQTVCEPCLDSVTFSDVVSATEPCKPCTECVGLQSMSAPCVEADDAVCRCAYGYYQDETTGRCEACRVCEAGSGLVFSCQDKQNTVCEECPDGTYSDEANHVDPCLPCTVCEDTERQLRECTRWADAECEEIPGRWITRSTPPEGSDSTAPSTQEPEAPPEQDLIASTVAGVVTTVMGSSQPVVTRGTTDNLIPVYCSILAAVVVGLVAYIAFKRWNSCKQNKQGANSRPVNQTPPPEGEKLHSDSGISVDSQSLHDQQPHTQTASGQALKGDGGLYSSLPPAKREEVEKLLNGSAGDTWRHLAGELGYQPEHIDSFTHEACPVRALLASWATQDSATLDALLAALRRIQRADLVESLCSESTATSPV
# notes: whole, on cells; also called p75 NGF-R; p75^NTR
# B2: NT-3: neurotrophin-3 (protein, UniProt P20783 139-257, looked up)
# Neurotrophin-3: YAEHKSHRGEYSVCDSESLWVTDKSSAIDIRGHQVTVLGEIKTGNSPVKQYFYETRCKEARPVKNGCRGIDDKHWNSQCKTSQTYVRALTSENNKLVGWRWIRIDTSCVCALSRKIGRT
# How the values were obtained:
# [1] = system: Bax; test: Bax level in beta-amyloid treated melanocytes (Western blot); type: cell-based, human
# Procedure: To investigate the mechanism of -amyloid-mediated melanocyte death, Bax levels in melanocytes treated with 25 uM of 1-40 or 25-35-amyloid peptides was examined. Within 4 days of treatment, Bax was induced 3 fold in melanocytes stimulated either with the beta-amyloid 1-40 or 25-35 fragments as compared to melanocytes treated with the 40-1 control fragment or an irrelevant HPLC purified protein of similar size.
# Melanocytes were maintained as above. Four days after addition of 25 microM of beta-amyloid fragments 1-40 40-1 or 25-35; or 25 microM of HPLC-purified bovine corticotropin releasing factor (CRF) (Bachem Calif.) (MW 4.7 kD) as an additional negative control, cells were extracted in RIPA buffer (50 mM Tris-HCl [pH 8.0], 0.15 M NaCl, 0.5% sodium deoxycholate, 1% Triton X-100) in the presence of 1 microg/ml aprotinin and 75 microg/ml phenylmethylsulfonyl fluoride (PMSF), sonicated for 1-3 seconds and centrifuged. 40 microg of protein per lane were separated on 12% SDS/PAGE and blotted onto nitrocellulose paper (overnight, 25C). To verify equal loading a duplicate 13% SDS/PAGE was performed and stained with Coomasie Blue R250 stain. […] Bound antibodies were detected using enhanced chemiluminescence kit (Amersham Corp.). […]
# [2] = system: p75; test: p75 signal transduction in melanocytes (JNK activation, intracellular ceramide); type: cell-based, human
# Procedure: To investigate p75 signal transduction, it was first determined by RT-PCR that trkA and trkC are not expressed in MC maintained in choleragen/TPA-free medium. MC were incubated with 10 ng/ml nerve growth factor (NGF) or neurotrophin-3 (NT-3) for 30 minutes and c-Jun amino terminal kinase (JNK) activation was determined. […] Furthermore, within 3 hours p75 activation by NGF, but not by NT-3, lead to a 2-fold increase of intracellular ceramide. As before, ceramide increase was abrogated by pre-incubation with the cyclic peptide. Because in cell lines, UV irradiation directly activates cell surface receptors such as Fas and the TNFα receptor, sham- or UV-irradiated MC were used to determine p75 activation.
# [3] = system: p75^NTR-NIH 3T3 cells; test: Effect of KGA-containing peptides on survival of beta-amyloid treated p75NTR-NIH 3T3 cells; type: cell-based; conditions: 250 nM peptide, 250 nM preaggregated beta-amyloid 1-40, 72 hours
# Procedure: p75^NTR-NIH 3T3 cells were maintained in DME supplemented with 10% calf serum until 80% confluent. The cells were washed and incubated in serum free DME containing transferrin (5 microg/ml) and insulin (5 microg/ml). Triplicate dishes were supplemented with diluent or preaggregated beta-amyloid 1-40 (250 nM) as […]. […] After 72 hours, cells were rinsed in PBS and cultures were incubated in 0.25% trypsin at 37° C. Cell yields were determine using a particle counter.
# [4] = system: human p75; test: p75 apoptotic signaling in 3T3-p75 cells (aggregation, c-jun, JNK, caspase-3, DNA fragmentation); type: cell-based; conditions: peptide pretreatment, then βA
# Procedure: To investigate p75 early signaling, NIH-3T3 cells engineered to constitutively express human p75 (3T3-p75), were stimulated with a known p75 ligand β amyloid (βA), and the distribution of p75 on the cell surface was analysed using immunohistochemistry and confocal laser microscopy. […] (FIG. 13)
# To determine if the initial step of p75 aggregation is required for initiation of apoptosis, 3T3-p75 were pretreated with an HPLC purified cyclic peptide (CATDIKGAEC) (SEQ ID NO:9) that binds the ligand binding site of p75, and then cultures were stimulated with βA or with diluent alone.
# [5] = system: BCL-2; test: BCL-2 antisense oligonucleotides in UV-irradiated MM4 cells with or without NGF; type: cell-based, human
# From the text: Purified phosphorothioate oligonucleotides were purchased from Quality Controlled Biochemicals, Inc. (Hopkinton, Mass.). 19 mer oligonucleotides were designed based on the published human BCL-2 sequence (Tsujimoto, Y. and Croce, C. M., Proc. Natl. Acad. Sci. USA, 83:5214-5218 (1986)). The sequence chosen was directed against the […] of the coding region starting 4 bases before the methionine initiation site. Nonsense oligonucleotides were used as control. Sequences used (all written 5′ to 3′): Antisense CCCAGCGTGCGCCATCCTT (SEQ ID NO: 7); Nonsense CTCCCACTCGTCATTCGAC (SEQ ID NO: 8).
# MM4 cells were maintained in 60 mm diameter tissue culture dishes in 55.3% DME, 27.6% L15, 15% FBS, 1% nonessential amino acids (GIBCO BRL), 2 mM glutamine and 10 µg/ml insulin. Near confluent cells were UV irradiated with 10 mJ/cm^2. Immediately after irradiation cells were incubated with 10 uM antisense or nonsense BCL-2 oligonucleotides in suspension at […] for 30 minutes. Then cells were plated in tissue culture dishes in the presence or absence of NGF (50 ng/ml). Cells were supplemented with fresh oligonucleotides every 12 hours. Cell yield and BCL-2 level were determined 48 hours after irradiation. Cell yield was determined by counting cells in at least three representative field per each condition.
# [6] = system: p75 NGF-R; test: p75 NGF-R antisense oligonucleotides in UV-irradiated, NGF-supplemented melanocytes; type: cell-based, human; conditions: UV 20 mJ/cm^2, 10 uM oligonucleotide, 48 hours
# Procedure: The following sequences were used: Antisense 5' to 3' […] NO: 5); Nonsense 5' to 3° […] NO: 6) (negative control). […] Near confluent cells were irradiated using a 1 KW xenon arc solar simulator (XMN 1000-21, Optical Radiation Corp., Azuza, Calif.) with 20 mJ/cm^2 UV through the petri dish plastic cover. Irradiance was adjusted to 4×10^-5 UV cm^-2 and metered with a research 20 radiometer (model I[…], International Light, Newburyport, Mass.) fitted with a UVB probe at 285 Å 5 nm. […] After the initial 30 minute incubation cells were plated in 35 mm dishes in basal melanocyte medium without serum. Cells were supplemented with fresh oligonucleotides every 12 hours for 48 hours. Cells were visualized by phase contrast microscopy and pictures of representative fields were obtained. Cell yields were determined by counting cells in several representative fields.
# [7] = system: MM4 cells; test: MM4 cell yields after UV or sham irradiation with growth factor supplementation; type: cell-based, human
# Procedure: Melanocytes or MM4 cells were plated in 60 mm diameter tissue culture dishes. Melanocytes were maintained in Medium 199 supplemented with 7% fetal bovine serum (FBS), 10 ng/ml epidermal growth factor (Collaborative Research), […] (Sigma), […] (Collaborative Research), […] (Sigma), 1.4×10^−6 M hydrocortisone (Calbiochem), […] (Calbiochem), and 10 ng/ml basic fibroblast growth factor (Collaborative Research) (basal melanocyte medium). MM4 cells were maintained in 55.3% DME, 27.6% L15, 15% FBS, 1% nonessential amino acids (GIBCO BRL), 2 mM glutamine and 10 µg/ml insulin. After 24 hours, medium was replaced by phosphate buffered saline (PBS) and cells were irradiated using a 1 KW xenon arc solar simulator (XMN 1000-21, Optical Radiation Corp., Azuza, Calif.) with 5, 10, or 25 mJ/cm^2 UV through the petri dish plastic cover. Irradiance was adjusted to 4×10^−5 UV cm^−2 and metered with a research radiometer (model IL1700A, International Light, Newburyport, Mass.) fitted with a UVB probe at 285 Å 5 nm. After UV irradiation, cells were maintained in their respective media without FBS for 2 days (MM4 cells) or 3 days (melanocytes) and processed as indicated. Sham irradiated control cultures were handled identically but laced under a dark cloth adjacent to the UV beam.
# FIGS. 2B and 2D show MM4 cell yields 24-72 hours after a single UV irradiation of 10 mJ/cm^2. FIGS. 2C and 2e show MM4 cell yields 24-72 hours after sham irradiation. Cells in FIGS. 2B and 2C were supplemented with 50 ng/ml NGF or diluent alone. Cells in FIGS. 2D and 2E were supplemented with 50 ng/ml bFGF or diluent alone.
# Melanocytes or MM4 cells were plated as described in Example 1. After irradiation, melanocytes were maintained in basal melanocyte medium lacking FBS and hydrocortisone, with 50 ng/ml NGF or diluent alone (melanocyte medium). MM4 cells were maintained in DME supplemented with 50 ng/ml NGF or diluent alone.
# [8] = molecular target: human p75 nerve growth factor receptor (human) (UniProt P08138); test: cell-based or functional assay
# [9] = molecular target: p75^NTR over expressed on permanently transfected NIH 3T3 fibroblasts (p75^NTR NIH 3T3 cells); test: cell-based or functional assay
# [10] = molecular target: p75^NTR over expressed on permanently transfected NIH 3T3 fibroblasts (p75^NTR NIH 3T3 cells); test: competition with 125I beta-amyloid 1-40 on p75^NTR-NIH 3T3 cells, NGF 0-100 ng/ml, counting of lysates
# [11] = molecular target: p75^NTR over expressed on permanently transfected NIH 3T3 fibroblasts (p75^NTR NIH 3T3 cells); test: competition with 125I beta-amyloid 1-40 on p75^NTR-NIH-3T3 cells in suspension, 4 hours, counting of lysates
# [12] = molecular target: the molecule itself; test: cross-linking of 3T3-p75 cells stimulated with βA, western blot with anti p75 antibodies
# [13] = pre-incubation with cyclic peptide
molecule,measurement,setting,value
"25-35: beta-amyloid fragment 25-35 (GSNKGAIIGLM; Amyloid-beta protein 42; UniProt P05067 696-706, looked up, fragment)",Bax induction versus 40-1 control fragment or irrelevant protein,"[1]; 25 uM, within 4 days",3 fold
same,Bax level as compared to the 40-1 peptide,"[1]; 25 microM, four days",160%
"CATDIKGAEC (also: cyclic, ring type not given here)",JNK activation in NGF stimulated cells,[2]; [13],abrogated JNK activation
same,NGF-induced ceramide increase,[2]; [13],abrogated
same,"Cell yields, cyclic peptide and beta-amyloid versus beta-amyloid alone",[3],significantly higher
same,c-jun transcription,[4],decreased c-jun transcription
same,p75 aggregation,[4],inhibited p75 aggregation
"CCCAGCGTGCGCCATCCTT (DNA, all phosphorothioate, methylation of C not given here; listed as Homo sapiens) [BCL-2 antisense oligonucleotides]",BCL-2 levels (Western blot),"[5]; 10 uM antisense, 48 hours after UV 10 mJ/cm^2",almost undetectable
same,"Cell yields, NGF plus BCL-2 antisense versus NGF plus nonsense","[5]; UV 10 mJ/cm^2, 10 uM oligonucleotide, NGF 50 ng/ml, 48 hours",significantly lower
"CKGAIC (also: cyclic, ring type not given here) [cyclic KGA-containing hexapeptide]","Cell yields, cyclic peptide and beta-amyloid versus beta-amyloid alone",[3],significantly higher
"GGCACCTGCCCCCATCGCC (DNA, all phosphorothioate, methylation of C not given here; listed as Homo sapiens) [antisense NGF-R, 19 mer antisense against the 5′ end of the human p75 NGF-R coding region]",NGF effect on melanocyte survival,[6],NGF does not have an effect on melanocyte survival
"bFGF: basic fibroblast growth factor, a major mitogen for cells of melanocytic origin",MM4 cell survival after UV irradiation,"[7]; UV 10 mJ/cm^2, 50 ng/ml bFGF",failed to improve MM4 cell survival
same,Effect on sham irradiated MM4 cells,"[7]; sham irradiation, 50 ng/ml bFGF",mitogenic effect
beta-amyloid 1-40 peptide (from UniProt P05067 1-40),melanocyte cell yield (% decrease in cell yield),[8],59
same,cell yield (% reduction of cell yield),[9],60
nerve growth factor (ligand),maximum inhibition of ^125I beta-amyloid binding,[10],38 % inhibition
same,intracellular ceramide (fold increase),[8],2
"CVGSNKGAIC (not fully specified (bridges); also: cyclic peptide, ring type not given here) [cyclic peptide … (SEQ ID NO: 4)]",IC50,[11],25 nM
B1,binding result,[12],binds
B2,UV-induced JNK activation,"[2]; NT-3 pre-treatment, within 30 minutes of UV",partially decreased
same,Increase of intracellular ceramide,[2]; within 3 hours,not by NT-3
